Results taken from PubChem BioAssay AID328 (DTP/NCI, 2004).
Several values for one entry are separate records, joined by “and”; a condition that tells them apart may be missing. Equal entries are not always repeated. Toxic doses and inconclusive results are not listed. How the source made its calls: active means survival T/C of 150% or more; inactive means T/C below 125% in these data.

Test system: BDF1 mice, P388 leukemia ip, median survival T/C
Assay: NCI In Vivo Anticancer Drug Screen. Data for tumor model P388 Leukemia (intraperitoneal) in B6D2F1 (BDF1) mice
Settings: endpoint: median survival time, higher = longer survival
Procedure, shortened: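 Compound-treated tumour-bearing mice were compared with vehicle-treated controls. Survival was recorded, and the value is the treated-group measurement divided by the control-group measurement (T/C).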

[1] = dose: 100.0 mg/kg/injection, schedule: Q04DX003 (ip), vehicle: saline with Tween-80
[2] = dose: 50.0 mg/kg/injection, schedule: Q01DX009 (ip), vehicle: saline with Tween-80
[3] = dose: 100.0 mg/kg/injection, schedule: Q01DX009 (ip), vehicle: saline with Tween-80
[4] = dose: 400.0 mg/kg/injection, schedule: Q01DX009 (ip), vehicle: saline with Tween-80

Measured: T/C

CCC(CN(C)C)C(=O)c1ccccc1 (centres undefined)
inactive: dose: 25.0 mg/kg/injection, schedule: Q04DX003 (ip), vehicle: saline with Tween-80 100 % of control | dose: 50.0 mg/kg/injection, schedule: Q04DX003 (ip), vehicle: saline with Tween-80 95 % of control | dose: 100.0 mg/kg/injection, schedule: Q01DX001 (ip), vehicle: saline with Tween-80 100 % of control | [1] 91 % of control and 95 % of control | dose: 200.0 mg/kg/injection, schedule: Q01DX001 (ip), vehicle: saline with Tween-80 100 % of control

N#Cc1cn(C2OC(CO)C(O)C2O)c2ncnc(N)c12 (centres undefined)
inactive: dose: 0.38 mg/kg/injection, schedule: Q01DX009 (ip), vehicle: other 105 % of control | dose: 3.0 mg/kg/injection, schedule: Q04DX003 (ip), vehicle: other 100 % of control
active: dose: 0.37 mg/kg/injection, schedule: Q04DX003 (ip), vehicle: other 163 % of control | dose: 0.56 mg/kg/injection, schedule: Q04DX003 (ip), vehicle: other 159 % of control | dose: 0.83 mg/kg/injection, schedule: Q04DX003 (ip), vehicle: other 172 % of control | dose: 0.88 mg/kg/injection, schedule: Q04DX003 (ip), vehicle: other 154 % of control | dose: 1.25 mg/kg/injection, schedule: Q04DX003 (ip), vehicle: other 204 % of control | dose: 1.33 mg/kg/injection, schedule: Q04DX003 (ip), vehicle: other 200 % of control | dose: 2.0 mg/kg/injection, schedule: Q04DX003 (ip), vehicle: other 150 % of control

CC(C)(C)C1CCC(C#N)(NNc2ccccc2)CC1 (centres undefined)
inactive: dose: 50.0 mg/kg/injection, schedule: Q01DX005 (ip), vehicle: saline with Tween-80 90 % of control | dose: 100.0 mg/kg/injection, schedule: Q01DX005 (ip), vehicle: saline with Tween-80 106 % of control | dose: 200.0 mg/kg/injection, schedule: Q01DX005 (ip), vehicle: saline with Tween-80 89 % of control

Cc1ccc2cc3c(ccc4ccccc43)c3c2c1CC3
active: [2] 154 % of control | [3] 162 % of control | dose: 300.0 mg/kg/injection, schedule: Q01DX009 (ip), vehicle: saline with Tween-80 163 % of control
inactive: dose: 7.4 mg/kg/injection, schedule: Q01DX009 (ip), vehicle: saline with Tween-80 117 % of control | dose: 25.0 mg/kg/injection, schedule: Q01DX009 (ip), vehicle: saline with Tween-80 122 % of control | dose: 75.0 mg/kg/injection, schedule: Q01DX009 (ip), vehicle: saline with Tween-80 122 % of control | dose: 88.0 mg/kg/injection, schedule: Q04DX003 (ip), vehicle: saline with Tween-80 118 % of control | dose: 132.0 mg/kg/injection, schedule: Q04DX003 (ip), vehicle: saline with Tween-80 118 % of control | dose: 300.0 mg/kg/injection, schedule: Q04DX003 (ip), vehicle: saline with Tween-80 118 % of control

NC(CSC(c1ccccc1)(c1ccccc1)c1ccccc1)C(=O)NCC(=O)O (centres undefined)
inactive: dose: 177.0 mg/kg/injection, schedule: Q01DX009 (ip), vehicle: saline with Tween-80 111 % of control | [4] 107 % of control

Br/C(=N\Nc1nn[nH]n1)c1ccccc1
inactive: [1] 87 % of control | dose: 200.0 mg/kg/injection, schedule: Q04DX003 (ip), vehicle: saline with Tween-80 91 % of control | dose: 400.0 mg/kg/injection, schedule: Q04DX003 (ip), vehicle: saline with Tween-80 91 % of control

Cc1c(C)c2c(N)c3ccccc3nc2c2ccccc12
inactive: dose: 12.5 mg/kg/injection, schedule: Q01DX001 (ip), vehicle: saline with Tween-80 97 % of control | dose: 25.0 mg/kg/injection, schedule: Q01DX001 (ip), vehicle: saline with Tween-80 100 % of control and 117 % of control | dose: 50.0 mg/kg/injection, schedule: Q01DX001 (ip), vehicle: saline with Tween-80 105 % of control

COc1ccc(CN2CCCN(Cc3ccc(OC)cc3)S2)cc1
inactive: [2] 92 % of control | [3] 101 % of control | dose: 200.0 mg/kg/injection, schedule: Q01DX009 (ip), vehicle: saline with Tween-80 110 % of control

O=C1c2ccc(O)cc2C(=O)c2ccc(O)cc21
inactive: dose: 66.0 mg/kg/injection, schedule: Q01DX009 (ip), vehicle: saline with Tween-80 109 % of control | [3] 109 % of control | dose: 150.0 mg/kg/injection, schedule: Q01DX009 (ip), vehicle: saline with Tween-80 109 % of control | [4] 120 % of control

NC(Cc1ccc(O)c(I)c1)C(=O)O (centres undefined)
inactive: dose: 25.0 mg/kg/injection, schedule: Q01DX009 (ip), vehicle: saline 109 % of control | dose: 50.0 mg/kg/injection, schedule: Q01DX009 (ip), vehicle: saline 113 % of control | dose: 50.0 mg/kg/injection, schedule: Q04DX003 (ip), vehicle: saline 110 % of control | dose: 100.0 mg/kg/injection, schedule: Q01DX009 (ip), vehicle: saline 120 % of control | dose: 100.0 mg/kg/injection, schedule: Q04DX003 (ip), vehicle: saline 110 % of control | dose: 200.0 mg/kg/injection, schedule: Q01DX009 (ip), vehicle: saline 95 % of control | dose: 200.0 mg/kg/injection, schedule: Q04DX003 (ip), vehicle: saline 115 % of control | dose: 400.0 mg/kg/injection, schedule: Q04DX003 (ip), vehicle: saline 110 % of control
